Patent US20100119595A1, “Monounsaturated fatty acids and perhydrocyclopentanophenanthrene nucleus combination molecules, and their precursors, and the use of all of these as weight-loss agents” (priority 2001, published 2010)
Entries after “also recorded” stand apart in the source; their conditions may differ. Each block holds one compound with its values, some of them ahead of it.

Columns and labels:
[1] = Stability of the compound
[2] = system: MCF-7 human breast cancer cell line; experiment: MCF-7 human breast cancer cell line test; assay type: cell-based
Text: The practical use of any compound given to humans for the treatment of obesity require, of course, that the compound not only be effective, but able to pass the FDA requirements and be approved as a drug suitable for humans. […] One test used to determine reactivity with human breast cancer cells is the “MCF-7 human breast cancer cell line test”. The lower the concentration of drug required to produce agonist activity, the more potential there is for problems with cancer causing &/or promotion in humans A comfortable level in the pharmaceutical industry would be a reactivity in the micromolar range. In the case of oleyl estrone, agonist activity begins at […]; with estrone eicosenoate, agonist activity begins at a ten times greater concentration of 1.0 nanomolar. This low concentration of agonist activity mitigates the possibility that these compounds would gain FDA approval for either drug.

[3] = cited from earlier work
[4] = Human study of 2 hydroxy estrone eicosenoate (Example 8); assay type: in vivo; details: humans, oral capsule, 0.75 or 0.375 micromoles/kg
Method: In this random, double-blind, placebo controlled study, subjects are selected to one of three groups and take a capsule orally every morning containing one of the following: a) sunflower oil (placebo), b) 2 hydroxy estrone eicosenoate dissolved in sunflower oil at a dose of 0.75 micromoles/kg, or c) 2 hydroxy estrone eicosenoate dissolved in sunflower oil at a dose of 0.375 micromoles/kg. […]
Different tests are performed at least five different times during each study, namely at the screening of potential participants, at the beginning of the study, weekly during the trials, at the end of the first 4 week period and at the end of the second 4 week treatment period. • 1) SCREENING: Subjects are screened to exclude hypothyroidism, pregnancy, and heart disease. […] Subjects selected to participate in the studies have the following initial measurements: WEIGHT, WAIST to HIP RATIO, HEIGHT, BMI (calculated), BODY FAT % & TOTAL BODY FAT (via bioelectrical impedance method). […]
Ad libitum diets are followed, and food intake and appetite are assessed daily by the patient with an appropriate questionnaire and booklet. […]

[5] = Rat study of 2 hydroxyestrone eicosenoate (Example 9); assay type: in vivo, Osborne Mendle rats; details: rats, oral gavage 21 days, 10, 5, 3.33 or 2.5 micromoles/kg
Method: Osborne Mendle rats are selected as the study subjects due to their propensity to gain fat to when fed a high fat diet. An initial measurement of body weight is performed on each rat.
The rats are placed individually in appropriate cages and allowed an ad libitum diet of standard rat chow and water for a 10-day period. During this 10-day period the rats are gavaged daily with 0.1 cc volume of sunflower oil to allow them to become comfortable with being handled and receiving the gavage tube (it takes about 10 days for this acclimation to occur, and is important so that the animals are not stressed by the gavage).
Daily measurements include the following: • 1. Weight • 2. Weight of food consumed • 3. Spillage • 4. Water consumed, both volume and weight
The rats remain confined and are denied out-of-cage activity or exercise for the duration of the experiment other than normal daily activity confined to the cage. This initial 10 day period establishes a pattern and average of weight gain, to acclimate the animals to the gavage procedure, and determine the average food and water consumption for each rat. […]
At the end of the study, rats are anesthetized then sacrificed via guillotine. […] Weight of the uterus is determined. […]

[6] = Rabbit 10-day oral study: body weight and food consumed (Example 1)
Method: During the first 3 weeks, rabbits were only weighed and allowed to eat. On the fourth week, all rabbits were given 0.05 cc dose of peanut oil.
Five New Zealand white rabbits were obtained and caged in their natural environment (outside) and fed a cafeteria, ad libitum diet of rabbit chow. […] The appropriate weights of OE or EE were diluted in peanut oil to provide concentrations as follows: 1) OE, 2 mg/0.05 cc; 2) EE, 1 mg/0.05 cc; 3) 0.33 mg/0.05 cc; 4) EE, 0.1mg/0.05 cc, 5) EE, 0.03 mg/0.05 cc
For the initial three weeks, the rabbits were given no medicine or oil. Body weight and food consumed were measured daily; establishing a daily average for food consumed and weight change.
Rabbits received the assigned dose for 10 consecutive days. Rabbit weight (kg) and food eaten (grams) were determined daily.

human T47D breast cells = details: ER-CALUX; cited from earlier work

- stability [1]: stable
Compound: CCCCCCCC/C=C\CCCCCCCCCC(=O)Oc1cc2c(cc1Br)[C@H]1CC[C@]3(C)C(=O)CC[C@H]3[C@@H]1CC2 (relative stereo) [bromo compound, 2-bromoestrone ester of cis-11-eicosenoic acid]
- reactivity in MCF-7 test ([2]; compared with oleoyl estrone): only as reactive as oleoyl estrone

Compound: CCCCCCCCCCCCCCCCCC(=O)Oc1ccc2c(c1)CCC1C2CCC2(C)C(=O)CCC12 (stereo not drawn) [stearoyl estrone]
- efficacy compared with oleoyl estrone ([3]; Life Sci, 1998: 62 (15): 1349-59): less effective

Compound: CCCCCCCC/C=C\CCCCCCCCCC(=O)Oc1cc2c(cc1O)[C@H]1CC[C@]3(C)C(=O)CC[C@H]3[C@@H]1CC2 [2-hydroxy estrone eicosenoate]
- appetite [4]: reduces appetite
- weight loss, loss of body fat, and/or decrease of body fat% [4]: produces weight loss
- body weight &/or body fat [5]: reduction of body weight &/or body fat
- food consumption [5]: reduction in food consumption

Compound: CCCCCCCC/C=C\CCCCCCCC(=O)Oc1ccc2c(c1)CC[C@@H]1[C@@H]2CC[C@]2(C)C(=O)CC[C@@H]12 [OE, Oleoyl-estrone, reference compound]
- lipid reserves ([3]; Zucker lean rats, one study): lost virtually all their lipid reserves
- weight loss ([3]; variety of rats, i.v. or oral, published articles): rapid and sustained weight loss
- concentration at which agonist activity begins ([2]; MCF-7 human breast cancer cells): 0.9 nM
- FINAL WT. ([6]; OE 2 mg/d oral in peanut oil, 10 days, one rabbit, initial wt 3.70 kg): 3.60 kg
- WT. Δ w/ Rx 10 days ([6]; OE 2 mg/d oral, 10 days, pre-Rx 10 day avg. +0.121, control +0.14): −0.10 kg
- FOOD/DAY AVG. w/ Rx ([6]; OE 2 mg/d oral, 10 days, pre-Rx avg 160.55): 93.8 grams
- side effect, behaviour ([6]; OE 2 mg/d oral, after one week of therapy, rabbit): very agitated, mean and aggressive; also recorded: irritability and aggressive behavior

Compound: C[C@]12CC[C@@H]3c4cc(O)c(O)cc4CC[C@H]3[C@@H]1CCC2=O [2 hydroxy estrone]
- times less active than estrone (human T47D breast cells): 10,000 times
